Laboratory results from PubChem BioAssay AID1259407 (Chemical Carcinogenesis Research Information System (CCRIS), 2018).
The source made the active and inactive calls. No rule for the calls is given here.

System: CCRIS mutagenicity, Ames/micronucleus/aberration tests
Test: CCRIS mutagenicity studies
[1] = Test System: AMES SALMONELLA TYPHIMURIUM, Strain/Indicator: TA98, Metabolic Activation: NONE, Method: STANDARD PLATE
[2] = Test System: AMES SALMONELLA TYPHIMURIUM, Strain/Indicator: TA100, Metabolic Activation: NONE, Method: STANDARD PLATE
[3] = Test System: AMES SALMONELLA TYPHIMURIUM, Strain/Indicator: TA100, Metabolic Activation: RAT, LIVER, S-9, AROCLOR 1254, Method: STANDARD PLATE
[4] = Test System: AMES SALMONELLA TYPHIMURIUM, Strain/Indicator: TA98, Metabolic Activation: NONE, Method: PREINCUBATION
[5] = Test System: AMES SALMONELLA TYPHIMURIUM, Strain/Indicator: TA100, Metabolic Activation: NONE, Method: PREINCUBATION

For `Nc1ncnc2c1ncn2[C@@H]1O[C@H](CO)[C@@H](O)[C@H]1O`, the mutagenic call (Test System: AMES SALMONELLA TYPHIMURIUM, Strain/Indicator: TA97, Metabolic Activation: NONE, Method: STANDARD PLATE) was “inactive; negative”, the mutagenic call (Test System: AMES SALMONELLA TYPHIMURIUM, Strain/Indicator: TA97, Metabolic Activation: RAT, LIVER, S-9, AROCLOR 1254, Method: STANDARD PLATE) was “inactive; negative” and the mutagenic call [1] was “inactive; negative”. For the same molecule, the mutagenic call (Test System: AMES SALMONELLA TYPHIMURIUM, Strain/Indicator: TA98, Metabolic Activation: RAT, LIVER, S-9, AROCLOR 1254, Method: STANDARD PLATE) was “inactive; negative”, the mutagenic call [2] was “inactive; negative” and the mutagenic call [3] was “inactive; negative”. For the same molecule, the mutagenic call (Test System: AMES SALMONELLA TYPHIMURIUM, Strain/Indicator: TA1535, Metabolic Activation: NONE, Method: STANDARD PLATE) was “inactive; negative”, the mutagenic call (Test System: AMES SALMONELLA TYPHIMURIUM, Strain/Indicator: TA1535, Metabolic Activation: RAT, LIVER, S-9, AROCLOR 1254, Method: STANDARD PLATE) was “inactive; negative” and the mutagenic call (Test System: AMES SALMONELLA TYPHIMURIUM, Strain/Indicator: TA1538, Metabolic Activation: NONE, Method: STANDARD PLATE) was “inactive; negative”. The mutagenic call (Test System: AMES SALMONELLA TYPHIMURIUM, Strain/Indicator: TA1538, Metabolic Activation: RAT, LIVER, S-9, AROCLOR 1254, Method: STANDARD PLATE) was “inactive; negative”, the mutagenic call (Test System: CHINESE HAMSTER OVARY, Strain/Indicator: CHO-KL-BH4 (HGPRT), Metabolic Activation: NONE) was “inactive; negative” and the mutagenic call (Test System: CHINESE HAMSTER OVARY, Strain/Indicator: CHO-KL-BH4 (HGPRT), Metabolic Activation: RAT, LIVER, S-9, AROCLOR 1254) was “inactive; negative”.

With `CNS(=O)(=O)c1ccc(N)cc1` the mutagenic call [4] was “inactive; negative”, the mutagenic call (Test System: AMES SALMONELLA TYPHIMURIUM, Strain/Indicator: TA98, Metabolic Activation: RAT, LIVER, S-9, AROCLOR 1254, Method: PREINCUBATION) was “inactive; negative” and the mutagenic call [5] was “inactive; negative”. For the same molecule, the mutagenic call (Test System: AMES SALMONELLA TYPHIMURIUM, Strain/Indicator: TA100, Metabolic Activation: RAT, LIVER, S-9, AROCLOR 1254, Method: PREINCUBATION) was “inactive; negative”.

With `c1ccc2c3c(ccc2c1)-c1cccc2cccc-3c12` the mutagenic call (Test System: AMES SALMONELLA TYPHIMURIUM, Strain/Indicator: TA97A, Metabolic Activation: NONE, Method: PREINCUBATION) was “inactive; negative”, the mutagenic call [4] was “inactive; negative” and the mutagenic call [5] was “inactive; negative”. The mutagenic call [3] was “active; positive”.

For `Cc1c(/C=N/OCc2cccc([N+](=O)[O-])c2)c2cc([N+](=O)[O-])ccc2n1Cc1ccccc1`, the mutagenic call [1] was “active; positive”, the mutagenic call (Test System: AMES SALMONELLA TYPHIMURIUM, Strain/Indicator: TA98, Metabolic Activation: RAT, LIVER, S-9, PHENOBARBITAL AND BETA-NAPHTHOFLAVONE, Method: STANDARD PLATE) was “active; positive” and the mutagenic call [2] was “active; positive”. For the same molecule, the mutagenic call (Test System: AMES SALMONELLA TYPHIMURIUM, Strain/Indicator: TA100, Metabolic Activation: RAT, LIVER, S-9, PHENOBARBITAL AND BETA-NAPHTHOFLAVONE, Method: STANDARD PLATE) was “active; positive”.

In the case of `Cc1cnc[nH]1`, the mutagenic call (End Point: In vivo micronucleus, Test System: Bone marrow polychromatic erythrocytes, Species: Mouse, Strain/Sex: B6C3F1/Male, Route: Intraperitoneal) was “inactive; positive in trial 1; negative in trial 2; percentage of pces declined with incre”, the mutagenic call (End Point: In vivo micronucleus, Test System: Polychromatic erythrocytes and Normochromatic erythrocytes, Species: Mouse, Strain/Sex: B6C3F1/Female, Route: Oral) was “inactive; negative (no increase in micronucleus frequencies at all levels; percentage of” and the mutagenic call (End Point: In vivo micronucleus, Test System: Polychromatic erythrocytes and Normochromatic erythrocytes, Species: Mouse, Strain/Sex: B6C3F1/Male, Route: Oral) was “inactive; negative (no increase in micronucleus frequencies at all levels; percentage of”. For the same molecule, the mutagenic call [4] was “inactive; negative”, the mutagenic call (Test System: AMES SALMONELLA TYPHIMURIUM, Strain/Indicator: TA98, Metabolic Activation: RAT LIVER S-9, PHENOBARBITAL AND BETA-NAPHTHOFLAVONE, Method: PREINCUBATION) was “inactive; negative” and the mutagenic call [5] was “inactive; negative”. The mutagenic call (Test System: AMES SALMONELLA TYPHIMURIUM, Strain/Indicator: TA100, Metabolic Activation: RAT LIVER S-9, PHENOBARBITAL AND BETA-NAPHTHOFLAVONE, Method: PREINCUBATION) was “inactive; negative”, the mutagenic call (Test System: AMES SALMONELLA TYPHIMURIUM, Strain/Indicator: TA102, Metabolic Activation: NONE, Method: PREINCUBATION) was “inactive; negative” and the mutagenic call (Test System: AMES SALMONELLA TYPHIMURIUM, Strain/Indicator: TA102, Metabolic Activation: RAT LIVER S-9, PHENOBARBITAL AND BETA-NAPHTHOFLAVONE, Method: PREINCUBATION) was “inactive; negative”. The mutagenic call (Test System: AMES SALMONELLA TYPHIMURIUM, Strain/Indicator: TA104, Metabolic Activation: NONE, Method: PREINCUBATION) was “inactive; negative”, the mutagenic call (Test System: AMES SALMONELLA TYPHIMURIUM, Strain/Indicator: TA104, Metabolic Activation: RAT LIVER S-9, PHENOBARBITAL AND BETA-NAPHTHOFLAVONE, Method: PREINCUBATION) was “inactive; negative” and the mutagenic call (Test System: AMES SALMONELLA TYPHIMURIUM, Strain/Indicator: TA1535, Metabolic Activation: NONE, Method: PREINCUBATION) was “inactive; negative”. The mutagenic call (Test System: AMES SALMONELLA TYPHIMURIUM, Strain/Indicator: TA1535, Metabolic Activation: RAT LIVER S-9, PHENOBARBITAL AND BETA-NAPHTHOFLAVONE, Method: PREINCUBATION) was “inactive; negative”, the mutagenic call (Test System: AMES SALMONELLA TYPHIMURIUM, Strain/Indicator: TA1537, Metabolic Activation: NONE, Method: PREINCUBATION) was “inactive; negative” and the mutagenic call (Test System: AMES SALMONELLA TYPHIMURIUM, Strain/Indicator: TA1537, Metabolic Activation: RAT LIVER S-9, PHENOBARBITAL AND BETA-NAPHTHOFLAVONE, Method: PREINCUBATION) was “inactive; negative”. For the same molecule, the mutagenic call (Test System: Ames Salmonella typhimurium, Strain/Indicator: TA97, Metabolic Activation: Hamster, liver, S-9, Aroclor 1254, Method: Preincubation) was “inactive; negative”, the mutagenic call (Test System: Ames Salmonella typhimurium, Strain/Indicator: TA97, Metabolic Activation: None, Method: Preincubation) was “inactive; negative” and the mutagenic call (Test System: Ames Salmonella typhimurium, Strain/Indicator: TA97, Metabolic Activation: Rat, liver, S-9, Aroclor 1254, Method: Preincubation) was “inactive; negative”. For the same molecule, the mutagenic call (Test System: Ames Salmonella typhimurium, Strain/Indicator: TA98, Metabolic Activation: Hamster, liver, S-9, Aroclor 1254, Method: Preincubation) was “inactive; negative”, the mutagenic call (Test System: Ames Salmonella typhimurium, Strain/Indicator: TA98, Metabolic Activation: None, Method: Preincubation) was “inactive; negative” and the mutagenic call (Test System: Ames Salmonella typhimurium, Strain/Indicator: TA98, Metabolic Activation: Rat, liver, S-9, Aroclor 1254, Method: Preincubation) was “inactive; negative”. The mutagenic call (Test System: Ames Salmonella typhimurium, Strain/Indicator: TA100, Metabolic Activation: Hamster, liver, S-9, Aroclor 1254, Method: Preincubation) was “inactive; negative”, the mutagenic call (Test System: Ames Salmonella typhimurium, Strain/Indicator: TA100, Metabolic Activation: None, Method: Preincubation) was “inactive; negative” and the mutagenic call (Test System: Ames Salmonella typhimurium, Strain/Indicator: TA100, Metabolic Activation: Rat, liver, S-9, Aroclor 1254, Method: Preincubation) was “inactive; negative”. For the same molecule, the mutagenic call (Test System: Ames Salmonella typhimurium, Strain/Indicator: TA1535, Metabolic Activation: Hamster, liver, S-9, Aroclor 1254, Method: Preincubation) was “inactive; negative”, the mutagenic call (Test System: Ames Salmonella typhimurium, Strain/Indicator: TA1535, Metabolic Activation: None, Method: Preincubation) was “inactive; negative” and the mutagenic call (Test System: Ames Salmonella typhimurium, Strain/Indicator: TA1535, Metabolic Activation: Rat, liver, S-9, Aroclor 1254, Method: Preincubation) was “inactive; negative”. For the same molecule, the mutagenic call (Test System: E.COLI, Strain/Indicator: WP2UVRA/PKM101, Metabolic Activation: NONE, Method: PREINCUBATION) was “inactive; negative”, the mutagenic call (Test System: E.COLI, Strain/Indicator: WP2UVRA/PKM101, Metabolic Activation: RAT LIVER S-9, PHENOBARBITAL AND BETA-NAPHTHOFLAVONE, Method: PREINCUBATION) was “inactive; negative” and the mutagenic call (Test System: E.COLI, Strain/Indicator: WP2UVRA, Metabolic Activation: NONE, Method: PREINCUBATION) was “inactive; negative”. The mutagenic call (Test System: E.COLI, Strain/Indicator: WP2UVRA, Metabolic Activation: RAT LIVER S-9, PHENOBARBITAL AND BETA-NAPHTHOFLAVONE, Method: PREINCUBATION) was “inactive; negative”.
